Laboratory results published in patent publication US7893082B2, “Substituted tetrahydroquinolines” (Merck Patent GmbH, priority 2005, dated 2011).

Tested on: cells
Test: cell cycle effect (appended experiments)
Format: cell-based
Settings: G2/M cell cycle

N=C(N)c1ccc(OCCCCCOc2ccc(C(=N)N)cc2)cc1 [pentamidine]
effect on cell cycle: maintain cells in the G2/M cell cycle
